This note sets out measurements from patent US8993585B2, “Cyclic amine substituted pyrimidinediamines as PKC inhibitors” (Rigel Pharmaceuticals, Inc., priority 2007, dated 2015).

For one experiment, the system named is Human primary T cells. Put plainly: IL-2 ELISA, Human Primary T Cell, Anti-CD3+CD28+ (Example 3). Particulars: Homo sapiens, T-cell, 24 h, anti-CD3+CD28 stimulation. It is filed as cell-based. The gist of the method:
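IL-2 was read by ELISA after stimulation on wells pre-coated with 1 ug/ml αCD3 and 5 μg/ml αCD28. Before this, 100,000 human primary T cells per well spent 1 h at 37 °C with test compound in Yssel's medium. The counter-screen replaced antibody stimulation with PMA (0.5 ng/ml final) and ionomycin (0.1 uM final).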
(In an ELISA, binding on a coated surface is turned into a signal by an enzyme label.)
In the case of `CN(C)c1ccc(-c2ccc(Nc3ncc(F)c(NC4CC(C)(C)N(C)C(C)(C)C4)n3)cc2C#N)cn1` [Compound I-426], the concentration for half-maximal inhibition (IC50) (commonly the concentration that gives 50% inhibition) was 0.42 µM. The same measure, in the same setting: the value for `CN1C(C)(C)CC(Nc2nc(Nc3ccc4c(c3)oc(=O)n4C)ncc2F)CC1(C)C` [II-36] was 0.678 µM. Still for that read-out and setting: next, `COc1ccc(Nc2ncc(F)c(N(Cc3ccc4ccccc4n3)C3CC(C)(C)N(C)C(C)(C)C3)n2)cc1OC(F)F` [Compound I-321]: 5.95 µM; `CCN1C(=O)C(C)(C)Oc2cc(Nc3ncc(C(F)(F)F)c(NC4CC(C)(C)N(C)C(C)(C)C4)n3)ccc21` [II-50]: 0.0918 µM; `CN1C(C)(C)CC(Nc2nc(Nc3ccc4c(cnn4C)c3)ncc2F)CC1(C)C` [II-39]: 0.967 µM. The same measure, in the same setting: the value for `CCN1C(=O)C(C)(C)Sc2cc(Nc3ncc(F)c(NC4CC(C)(C)N(C)C(C)(C)C4)n3)ccc21` [II-63] was 0.0772 µM; that for `CN1C(C)(C)CC(Nc2nc(Nc3ccc4c(c3)oc(=O)n4CCN3CCOCC3)ncc2F)CC1(C)C` [II-167] was 2.18 µM. On to `CN1C(C)(C)CC(Nc2nc(Nc3ccc4c(c3)OC(F)(F)O4)ncc2F)CC1(C)C` [II-37], for which the midpoint of inhibition, the IC50, lay at 1.37 µM.

The molecule `CN1C(C)(C)CC(Nc2nc(Nc3cc4c(cc3F)OC(F)(F)C(F)(F)O4)ncc2F)CC1(C)C` [II-123] had a half-maximal inhibitory concentration (IC50) of 0.88 µM. Still for that read-out and setting: next, `CN1C(C)(C)CC(Nc2nc(Nc3ccc4c(c3)OC3(CCCC3)O4)ncc2F)CC1(C)C` [II-113]: 2.17 µM; `CC1(C)CC(Nc2nc(Nc3ccc4c(c3)OC(C)(C)O4)ncc2F)CC(C)(C)N1` [II-102]: 5.22 µM. Still for that read-out and setting: next, `CC1(C)CC(Nc2nc(Nc3ccc4c(c3)oc(=O)n4CCN3CCOCC3)ncc2F)CC(C)(C)N1` [II-168]: 5.6 µM. `CN1C(C)(C)CC(Nc2nc(Nc3ccc4c(n3)NCCO4)ncc2F)CC1(C)C` [II-24] registered a half-maximal inhibitory concentration (IC50) of 11.3 µM. In turn, `CC(C)n1c(=O)oc2cc(Nc3ncc(F)c(NC4CC(C)(C)N(C)C(C)(C)C4)n3)ccc21` [II-47] had an IC50 of 0.229 µM.

As for `CN1C(C)(C)CC(Nc2nc(Nc3ncc([N+](=O)[O-])s3)ncc2F)CC1(C)C` [II-14], inhibition was half-maximal at 2.57 µM (IC50). With `Cc1ccc(Nc2ncc(F)c(N(Cc3ccc4ccccc4c3)C3CC(C)(C)N(C)C(C)(C)C3)n2)cc1C#N` [Compound I-315], 3.39 µM corresponded to half-maximal inhibition (IC50). Same read-out and setting: next, `COc1cc(Nc2ncc(F)c(N(Cc3ccc(-c4ccccc4)cc3)C3CC(C)(C)N(C)C(C)(C)C3)n2)cc(OC)c1` [Compound I-317]: 2.42 µM; `COc1cc(Nc2ncc(F)c(NC3CC(C)(C)NC(C)(C)C3)n2)cc(OCCn2cccc2)c1` [Compound I-438]: 0.3 µM. On the same count and under the same terms, next, `CC(C)N1C(=O)COc2cc(Nc3ncc(F)c(NC4CC(C)(C)N(C)C(C)(C)C4)n3)ccc21` [II-61]: 0.168 µM.

In turn, `CCN1C(=O)C(C)(C)Oc2cc(Nc3ncc(C#N)c(NC4CC(C)(C)NC(C)(C)C4)n3)ccc21` [II-57] came in with a concentration for half-maximal inhibition (IC50) of 0.147 µM. In turn, `COc1cc(O)cc(Nc2ncc(F)c(NC3CC(C)(C)NC(C)(C)C3)n2)c1` [Compound I-453] showed a half-maximal inhibitory concentration (IC50) of 1.05 µM. Take `COc1cc(Nc2ncc(F)c(N(Cc3ccc4ccccc4c3)C3CC(C)(C)N(C)C(C)(C)C3)n2)cc(OC)c1` [Compound I-314]: the IC50 turned out to be 2.57 µM. On the same count and under the same terms, the value for `Cc1cc(NC2CC(C)(C)N(C)C(C)(C)C2)nc(Nc2ccc(N3CCN(S(C)(=O)=O)CC3)c(Cl)c2)n1` [IV-3] was 4.39 µM.

Staying with this experiment, now noted: anti-CD3+CD28 stimulation, 24 hours.
As to `CN1C(C)(C)CC(Nc2nc(Nc3ccc4cn[nH]c4c3)ncc2F)CC1(C)C` [II-40], the half-inhibitory concentration (IC50) came out at 2.97 µM. Turning to `COc1cc(Nc2ncc(F)c(NC3CC(C)(C)N(C)C3(C)C)n2)cc(OC)c1OC` (centres unmarked) [Compound I-282, 5-Fluoro-N2-(3,4,5-trimethoxy)phenyl-N4-(1,2,2,5,5-pentamethylpyrrolidin-3-yl)-2,4-pyrimidinediamine], the IC50 was 15.3 µM. Same read-out and setting: next, `COc1ccc(Nc2ncc(F)c(NC3CC(C)(C)N(C)C3(C)C)n2)cc1Cl` (centres unmarked) [Compound I-280, 5-Fluoro-N2-(3-chloro-4-methoxy)phenyl-N4-(1,2,2,5,5-pentamethylpyrrolidin-3-yl)-2,4-pyrimidinediamine]: 2.73 µM. Same read-out and setting: the value for `CSc1nnnn1-c1cccc(Nc2ncc(C(N)=O)c(NC3CC(C)(C)NC(C)(C)C3)n2)c1` [Compound I-457] was 1.67 µM; that for `CC(=O)N1CCN(c2cc(Nc3ncc(F)c(NC4CC(C)(C)N(C)C(C)(C)C4)n3)ccc2C(F)(F)F)CC1` [Compound I-212] was 0.445 µM. The same measure, in the same setting: the value for `CN1C(C)(C)CC(Nc2nc(Nc3ccc(N4CCN(S(C)(=O)=O)CC4)c(Cl)c3)ncc2[N+](=O)[O-])CC1(C)C` [Compound I-73] was 0.665 µM. In turn, `COC(=O)/C=C/N1C(C)(C)CC(Nc2nc(Nc3ccc(OC)c(OC)c3)ncc2F)CC1(C)C` [Compound I-297] had a 50% inhibitory concentration (IC50) of 24.7 µM. Same read-out and setting: next, `CN1C(C)(C)CC(Nc2nc(Nc3ccc(N4CCC(F)(F)CC4)c(Cl)c3)ncc2F)CC1(C)C` [Compound I-50]: 0.32 µM. In turn, `CN1C(C)(C)CC(Nc2nc(Nc3cc(O)cc(O)c3)ncc2F)CC1(C)C` [Compound I-384] gave an IC50 of 9.51 µM.

`CN1C(C)(C)CC(Nc2nc(Nc3ccc(F)c(Cl)c3)ncc2F)CC1(C)C` [Compound I-333] showed an IC50 of 0.586 µM. Same read-out and setting: next, `CN1C(C)(C)CC(Nc2nc(Nc3ccc(C(N)=O)cc3)ncc2F)CC1(C)C` [Compound I-23]: 1.68 µM; `COc1ccc(Nc2ncc(F)c(NC3CC(C)(C)N(C)C(C)(C)C3)n2)cc1OC(F)(F)F` [Compound I-343]: 0.315 µM; `CCN1CCN(c2cc(Nc3ncc(F)c(NC4CC(C)(C)N(C)C(C)(C)C4)n3)ccc2Cl)CC1` [Compound I-41]: 2.63 µM. `COc1cc(C)c(Nc2ncc(F)c(NC3CC(C)(C)NC(C)(C)C3)n2)cc1OC` [Compound I-379] gave a half-maximal inhibitory concentration (IC50) of 34.5 µM. For `CN1C(C)(C)CC(Nc2nc(Nc3ccc(N4CCN(S(C)(=O)=O)CC4)c(C(F)(F)F)c3)ncc2[N+](=O)[O-])CC1(C)C` [Compound I-78], the IC50 was 0.928 µM. On the same count and under the same terms, the value for `CN1C(C)(C)CC(Nc2nc(Nc3ccc(N4CCCC4)c(OC(F)F)c3)ncc2F)CC1(C)C` [Compound I-237] was 0.887 µM.

Take `CSc1nnnn1-c1cccc(Nc2ncc(C#N)c(NC3CC(C)(C)N(C)C(C)(C)C3)n2)c1` [Compound I-464]: the half-inhibitory concentration (IC50) was determined as 0.18 µM. On the same count and under the same terms, the value for `CN1C(C)(C)CC(Nc2nc(Nc3ccc(Oc4ncccn4)c(Cl)c3)ncc2F)CC1(C)C` [Compound I-338] was 0.36 µM. Consider `CCOC(=O)c1cnc(Nc2ccc(N3CCN(S(C)(=O)=O)CC3)c(Cl)c2)nc1NC1CC(C)(C)N(C)C(C)(C)C1` [Compound I-84], for which the half-inhibitory concentration (IC50) was determined as 6.85 µM. The same measure, in the same setting: the value for `COc1ccc(Nc2ncc(F)c(NC3CC(C)(C)N(C)C(C)(C)C3)n2)cc1OC(C)C` [Compound I-360] was 2.2 µM; that for `CN1C(C)(C)CC(Nc2nc(Nc3cccc(C#N)c3)ncc2C(N)=O)CC1(C)C` [Compound I-86] was 4.99 µM; that for `COC(=O)CCN1C(C)(C)CC(Nc2nc(Nc3ccc(OC)c(C(F)(F)F)c3)ncc2F)CC1(C)C` [Compound I-295] was 5.1 µM. The molecule `Cc1nnnn1-c1cccc(Nc2ncc(F)c(NC3CC(C)(C)NC(C)(C)C3)n2)c1` [Compound I-414] registered a half-maximal inhibitory concentration (IC50) of 0.16 µM. Turning to `CN1C(C)(C)CC(Nc2nc(Nc3ccc(-n4cnnn4)cc3)ncc2F)CC1(C)C` [Compound I-400], 1.69 µM corresponded to half-maximal inhibition (IC50). Still for that read-out and setting: next, `CCN(CC)C1CCC(Nc2nc(Nc3ccc(N4CCN(C)CC4)c(C(F)(F)F)c3)ncc2F)CC1` (centres unmarked) [IV-7, N4-(4-Diethylamino)cyclohexyl-5-fluoro-N2-[4-(4-methylpiperazino)-3-trifluoromethyl]phenyl-2,4-pyrimidinediamine]: 3.62 µM. On the same count and under the same terms, the value for `Cc1ccc(Nc2ncc(F)c(NC3CCC(C)(C)N(C)C(C)(C)C3)n2)cc1C#N` (centres unmarked) [Compound I-263, 5-Fluoro-N2-[4-(methyl)-3-cyano]phenyl-N4-(1,2,2,7,7-pentamethylazepan-4-yl)-2,4-pyrimidinediamine] was 10.9 µM; that for `CC1CC(c2ccc(Nc3ncc(F)c(NC4CC(C)(C)N(C)C(C)(C)C4)n3)cc2)CC(C)O1` (centres unmarked) [Compound I-222] was 1.53 µM.

In turn, `Cc1cnc(Nc2ccc(S(N)(=O)=O)cc2)nc1NC1CC(C)(C)N(C)C(C)(C)C1` [Compound I-13] registered a concentration for half-maximal inhibition (IC50) of 7.68 µM. In the case of `CN1CCN(c2ncc(Nc3ncc(F)c(NC4CC(C)(C)N(C)C(C)(C)C4)n3)cc2Cl)CC1` [Compound I-288], half-maximal inhibition (IC50) was put at 0.374 µM.

Consider `COCCOc1cc(Nc2ncc(F)c(NC3CC(C)(C)N(C)C(C)(C)C3)n2)ccc1OC` [Compound I-413], for which the IC50 is 6.15 µM. Still for that read-out and setting: the value for `CN1CCN(c2ccc(Nc3ncc(Cl)c(NC4CC(C)(C)N(C)C(C)(C)C4)n3)cc2Cl)CC1` [Compound I-36] was 0.083 µM; that for `COc1c(C)cc(Nc2ncc(F)c(NC3CC(C)(C)N(C)C(C)(C)C3)n2)cc1C` [Compound I-131] was 0.629 µM; that for `CN1C(C)(C)CC(Nc2nc(Nc3ccc(O)cc3)ncc2F)CC1(C)C` [Compound I-252] was 10.2 µM. Take `COCCOc1cc(Nc2ncc(F)c(NC3CC(C)(C)N(C)C(C)(C)C3)n2)cc(OCCOC)c1` [Compound I-385]: the IC50 turned out to be 1.18 µM. Molecule `CN1C(C)(C)CC(Nc2nc(Nc3cccc(-c4cnn(C)c4)c3)ncc2F)CC1(C)C` [Compound I-143] came in with an IC50 of 1.41 µM. On the same count and under the same terms, the value for `CN1C(C)(C)CC(Nc2nc(Nc3cc(F)cc(F)c3)ncc2F)CC1(C)C` [Compound I-354] was 0.595 µM. `COc1ccc(Nc2ncc(Br)c(NC3CC(C)(C)N(C)C(C)(C)C3)n2)cc1C(F)(F)F` [Compound I-272]: the IC50 was 0.826 µM. Still for that read-out and setting: next, `CC1CN(c2ccc(Nc3ncc(F)c(NC4CC(C)(C)N(C)C(C)(C)C4)n3)cc2C(F)(F)F)CC(C)O1` (centres unmarked) [Compound I-225]: 0.755 µM; `CN1CCN(c2ccc(Nc3ncc(F)c(NC4CCN(CCO)CC4)n3)cc2Cl)CC1` [III-8, N2-[3-Chloro-4-(4-methylpiperazino)]phenyl-5-fluoro-N4-[1-(2-hydroxyethyl)piperidin-4-yl]-2,4-pyrimidinediamine]: 2.61 µM.
